From US4211772A, “Benzopyran glycoside acetals and ketals” (Laboratoires Sarget, priority 1977, dated 1980)
Converted amounts (≈) assume the structure as drawn. Where two headings read alike, the source gives them in different places.

Assays:
Solubilities in water = assay type: physicochemical; details: for solubility: water, read-out: Solubilities in water
Aldose Reductase = target: T1, Aldose Reductase (Bos taurus, UniProt P16116); experiment: Inhibition of aldose reductase in vitro (enzyme from beef eye lenses, glyceraldehyde substrate); assay type: biochemical; details: in DMF solution, read-out: percentages of inhibition (aldose reductase); for inhibition at 100 µM: 10^-4 mole/l; for inhibition at 10 µM: 10^-5 mole/l
T1 construct: The enzyme is extracted from beef eye lenses; from tissue; host or cells: beef eye lenses
From the text: Inhibition of Aldose Reductase In Vitro
The reoxidation of NADPH coupled to the enzymatic reaction was followed spectrophotometrically at 340 nm.

galactosemic cataract = experiment: Galactosemic cataract in rats; assay type: in vivo, weaning male EOPS Wistar rats; details: 100 mg/kg/d i.p.
Protocol: GALACTOSEMIC CATARACT IN RATS
The study was conducted using weaning male EOPS Wistar rats having an initial weight of between 45 and 50 g. The animals were fed a high vitamin and high protein regimen containing 20% by weight of galactose. The first signs of cataracts, detected by the ophthalmoscope, appeared beginning with the third day. The animals received daily i.p. doses of the test compound, the treatment being started four days after the commencement of the galactosemic regimen. The evolution of the cataract was followed by the detection of maroon rings visible in the ophthalmoscope. These rings appeared on the external edge of the lens and progressed little by little to its center. Anatomopathological studies of the lenses confirmed that these brown rings correspond well to the characteristic histological lesions of galactosemic cataracts. Photographs taken with the aid of a retinograph facilitated the comparison of the evolution of the lesions.
Statistical calculations according to the .chi.^2 method permit an evaluation of the significance of the results obtained for each of the treatments compared to those for non-treated animals.

capillary resistance = experiment: Capillaroprotecting effects: capillary resistance; assay type: in vivo, male OFA EOPS rats
Protocol: (§1) Capillaroprotecting effects
The capillary resistance was determined by a variant of the method of Charlier et al, Arch. Inter. Physiol.

capillary permeability = experiment: Capillaroprotecting effects: capillary permeability; assay type: in vivo, conventional male Wistar rats
Protocol: as §1
The capillary permeability was determined by the method of Charlier et al, Arch. Inter. Physiol.

carragenin edema = experiment: Anti-inflammatory activity: carragenin edema test; assay type: in vivo; details: Rattus norvegicus, ip, saturated bicarbonate solution, read-out: % inhibition of carragenin edema; for inhibition in vivo at 75 mg/kg: 75 mg/kg i.p.; for inhibition in vivo at 150 mg/kg: 150 mg/kg i.p.
Protocol: Anti-inflammatory activity
This was determined by the carragenin edema test using male Wistar EOPS rats. Inflammation was induced by the injection of 0.1 ml of a suspension of 5% carragenin in physiological serum into the muscular bundle of the metatarsal region of the posterior paw of the animal. The test substance was administered i.p. in neutralized solution at the same time as the carragenin.
Edema was measured by plethysmometry at different times after the administration of the carragenin.
Tables IV and V show the percentages of inhibition as a function of time and of dosage for certain compounds of the present invention.
The above results were obtained for solutions of substantially alkaline
The reference experiments were performed using physiological serum brough
to a pH approximately the same as the pH of the solutions to be tested.

`CC1(C)O[C@@H]2[C@@H](O)[C@H](OC[C@H]3O[C@@H](Oc4c(-c5ccc(O)c(O)c5)oc5cc(O)cc(O)c5c4=O)[C@H](O)[C@@H](O)[C@@H]3O)OC[C@@H]2O1` [No. 4, 3-O-(3,4-O,O-isopropylidene-6-α-L-arabinosyl-β-D-glucosyl)-quercetin] showed a solubility (Solubilities in water) of 600 µg/mL (≈ 943 µM), an inhibition at 100 µM (Aldose Reductase) of 42% and an inhibition at 10 µM (Aldose Reductase) of 0%.

Work on `O=c1ccc2cc(O[C@@H]3O[C@H](CO)[C@@H](O)[C@H](O)[C@H]3O)c(O)cc2o1` [Esculin, reference compound] yielded a solubility (Solubilities in water) of 1700 µg/mL (≈ 5000 µM) and an inhibition at 100 µM (Aldose Reductase) of 16%.

For `O=c1c(O[C@@H]2O[C@H](CO[C@@H]3OC[C@H](O)[C@H](O)[C@H]3O)[C@@H](O)[C@H](O)[C@H]2O)c(-c2ccc(O)c(O)c2)oc2cc(O)cc(O)c12` [3-Vicianosyl quercetin, reference compound], the solubility (Solubilities in water) was 330 µg/mL (≈ 553 µM), the “percentage of animals which have not yet shown the appearance of cataracts” value (galactosemic cataract; day 0) was 100% and the “percentage of animals which have not yet shown the appearance of cataracts” value (galactosemic cataract; day 1) was 100%. The “percentage of animals which have not yet shown the appearance of cataracts” value (galactosemic cataract; day 2) was 97%, the “percentage of animals which have not yet shown the appearance of cataracts” value (galactosemic cataract; day 3) was 59% and the “percentage of animals which have not yet shown the appearance of cataracts” value (galactosemic cataract; day 4) was 40%. The “significance compared to non-treated animals (chi^2)” value (galactosemic cataract; day 4) was “S”, the “percentage of animals which have not yet shown the appearance of cataracts” value (galactosemic cataract; day 5) was 31% and the “significance compared to non-treated animals (chi^2)” value (galactosemic cataract; day 5) was “S”. The “percentage of animals which have not yet shown the appearance of cataracts” value (galactosemic cataract; day 6) was 12%, the “significance compared to non-treated animals (chi^2)” value (galactosemic cataract; day 6) was “S” and the “percentage of animals which have not yet shown the appearance of cataracts” value (galactosemic cataract; day 10) was 9%. For the same compound, the “percentage of animals which have not yet shown the appearance of cataracts” value (galactosemic cataract; day 12) was 19%, the “significance compared to non-treated animals (chi^2)” value (galactosemic cataract; day 12) was “S” and the “percentage of animals which have not yet shown the appearance of cataracts” value (galactosemic cataract; day 16) was 22%. The “significance compared to non-treated animals (chi^2)” value (galactosemic cataract; day 16) was “S” and the “percentage of animals which have not yet shown the appearance of cataracts” value (galactosemic cataract; day -4) was 100%.

Work on `CC1(C)OC[C@H]2O[C@@H](Oc3c(-c4ccc(O)c(O)c4)oc4cc(O)cc(O)c4c3=O)[C@H](O)[C@@H](O)[C@@H]2O1` [No. 5, 3-O-(4,6-O,O-isopropylidene-β-D-glucosyl)-quercetin] yielded a solubility (Solubilities in water) of under 100 µg/mL, an inhibition at 100 µM (Aldose Reductase) of 83% and an inhibition at 10 µM (Aldose Reductase) of 56%. The inhibition at 1 µM (Aldose Reductase; 10^-6 mole/l) was 0%, the “% of animals for which the effect is ≥ 25 u cm Hg/h” value (“% of animals” for short) (capillary resistance; 50 mg/kg i.p.) was 60% and the “capillary resistance, effect observed” value (capillary resistance; 50 mg/kg i.p.) was 28 ± 9.8 u cm Hg/h. The “% of animals” value (capillary resistance; 100 mg/kg i.p.) was 80%, the “capillary resistance, effect observed” value (capillary resistance; 100 mg/kg i.p.) was 32.25 ± 11.4 u cm Hg/h and the “% of animals” value (capillary resistance; 200 mg/kg i.p.) was 80%. For the same compound, the “capillary resistance, effect observed” value (capillary resistance; 200 mg/kg i.p.) was 37 ± 16.1 u cm Hg/h, the “percentage reduction of capillary permeability” value (shortened to “percentage reduction”) (capillary permeability; 50 mg/kg i.p.) was 11% and the “percentage reduction” value (capillary permeability; 100 mg/kg i.p.) was 34%. The “percentage reduction” value (capillary permeability; 200 mg/kg i.p.) was 28%.

In the case of `O=c1c(O[C@@H]2O[C@H](CO)[C@@H](O)[C@H](O)[C@H]2O)c(-c2ccc(O)c(O)c2)oc2cc(O)cc(O)c12` [Isoquercitrin, reference compound], the Solubilities in water (Solubilities in water) is reported as “insoluble”, the inhibition in vivo at 75 mg/kg (carragenin edema; 1/2 h) is reported as 28% and the inhibition in vivo at 150 mg/kg (carragenin edema; 1/2 h) is reported as 30%. The inhibition in vivo at 75 mg/kg (carragenin edema; 1 h, 1 h) was 32%, the inhibition in vivo at 150 mg/kg (carragenin edema; 1 h, 1 h) was 40% and the inhibition in vivo at 75 mg/kg (carragenin edema; 2 h, 2 h) was 18%. For the same compound, the inhibition in vivo at 150 mg/kg (carragenin edema; 2 h, 2 h) was 37%, the inhibition in vivo at 75 mg/kg (carragenin edema; 3 h, 3 h) was 28% and the inhibition in vivo at 150 mg/kg (carragenin edema; 3 h, 3 h) was 18%. For the same compound, the inhibition in vivo at 75 mg/kg (carragenin edema; 4 h, 4 h) was 22%, the inhibition in vivo at 150 mg/kg (carragenin edema; 4 h, 4 h) was 9% and the inhibition in vivo at 75 mg/kg (carragenin edema; 5 h, 5 h) was 23%. For the same compound, the inhibition in vivo at 150 mg/kg (carragenin edema; 5 h, 5 h) was 9%, the inhibition in vivo at 75 mg/kg (carragenin edema; 6 h, 6 h) was 25% and the inhibition in vivo at 150 mg/kg (carragenin edema; 6 h, 6 h) was 6%.
